According to ChEMBL document CHEMBL1201862, “PubChem BioAssay data set” (2004):
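Following 48 hours of exposure in 96-well plates, responses at five concentrations were used to interpolate endpoints linearly. Abbreviation: GI50, concentration required for 50% inhibition of growth.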 The source made the active and inactive calls. Cut-off read from the data, not from the text of the source: active = GI50 up to about 1.1 µM and inactive = higher.

What was measured:
Experiment in all cases: NCI anticancer screen, dose series, 48 h
DU-145 = system: DU-145
K562 = system: K562
UACC-62 = system: UACC-62
UACC-257 = system: UACC-257
MDA-MB-435 = system: MDA-MB-435
RXF 393 = system: RXF 393
OVCAR-3 = system: OVCAR-3
RPMI-8226 = system: RPMI-8226
HOP-62 = system: HOP-62
A549 = system: A549
SNB-19 = system: SNB-19
IGROV-1 = system: IGROV-1
KM12 = system: KM12
786-0 = system: 786-0
MOLT-4 = system: MOLT-4
OVCAR-4 = system: OVCAR-4
COLO 205 = system: COLO 205
SNB-75 = system: SNB-75
HT-29 = system: HT-29
HOP-92 = system: HOP-92

Row | Compound | GI50 (DU-145) | GI50 (K562) | GI50 (UACC-62) | GI50 (UACC-257) | GI50 (MDA-MB-435) | GI50 (RXF 393) | GI50 (OVCAR-3) | GI50 (RPMI-8226) | GI50 (HOP-62) | GI50 (A549) | GI50 (SNB-19) | GI50 (IGROV-1) | GI50 (KM12) | GI50 (786-0) | GI50 (MOLT-4) | GI50 (OVCAR-4) | GI50 (COLO 205) | GI50 (SNB-75) | GI50 (HT-29) | GI50 (HOP-92)
1 | CCC1c2[nH]c3ccccc3c2C[C@H]2C(=O)NC(C)C(=O)N12 (some centres not stated) | > 100 µM (inactive) | > 100 µM (inactive) | > 100 µM (inactive) | > 100 µM (inactive) | > 100 µM (inactive) | > 100 µM (inactive) | > 100 µM (inactive) | > 100 µM (inactive) | > 100 µM (inactive) | > 100 µM (inactive) | > 100 µM (inactive) | > 100 µM (inactive) | > 100 µM (inactive) | > 100 µM (inactive) | > 100 µM (inactive) | > 100 µM (inactive) | > 100 µM (inactive) | 23.7 µM (inactive) | > 100 µM (inactive) | > 100 µM (inactive)
2 | CC(O)c1cc2c(s1)C(=O)c1ccsc1C2=O (configuration not stated) | 0.0489 µM (active) | 0.122 µM (active) | 0.0262 µM (active) | 0.0167 µM (active) | < 0.01 µM (active) | 0.213 µM (active) | 0.0522 µM (active) | 0.123 µM (active) | 0.142 µM (active) | 0.189 µM (active) | 0.241 µM (active) | 0.468 µM (active) | 0.508 µM (active) | 0.665 µM (active) | 0.213 µM (active) | 0.212 µM (active) | 1.77 µM (inactive) | 0.0649 µM (active) | 0.21 µM (active) | 0.265 µM (active)
3 | CCOC(=O)C1(Cc2c[nH]c3ccccc23)C(O)CCCN1C(C)=O (configuration not stated) | > 100 µM (inactive) | > 100 µM (inactive) | > 100 µM (inactive) | > 100 µM (inactive) | > 100 µM (inactive) | > 100 µM (inactive) | > 100 µM (inactive) | > 100 µM (inactive) | > 100 µM (inactive) | > 100 µM (inactive) | > 100 µM (inactive) | > 100 µM (inactive) | > 100 µM (inactive) | > 100 µM (inactive) | > 100 µM (inactive) | > 100 µM (inactive) | > 100 µM (inactive) | > 100 µM (inactive) | > 100 µM (inactive) | > 100 µM (inactive)
4 | COc1ccc2nc3c([N+](=O)[O-])ccc(NCCCN(C)C)c3c(N)c2c1 | 1.67 µM (inactive) | 0.41 µM (active) | 1.82 µM (inactive) | > 10 µM (inactive) | 1.77 µM (inactive) | 1.29 µM (inactive) | 1.49 µM (inactive) | 1.15 µM (inactive) | 1.78 µM (inactive) | 1.49 µM (inactive) | 2.01 µM (inactive) | 1.21 µM (inactive) | 1.51 µM (inactive) | 1.22 µM (inactive) | 0.276 µM (active) | 1.5 µM (inactive) | 0.764 µM (active) | 1.66 µM (inactive) | 0.845 µM (active) | 1.87 µM (inactive)
5 | O=P1(N(CCCl)CCCl)Oc2c(Cl)cc(Cl)c(Cl)c2Cc2c(Cl)c(Cl)cc(Cl)c2O1 | 71.1 µM (inactive) | 74 µM (inactive) | 48.3 µM (inactive) | 59.7 µM (inactive) | 60.5 µM (inactive) | > 100 µM (inactive) | 45.2 µM (inactive) | 64.3 µM (inactive) | 64 µM (inactive) | 38.5 µM (inactive) |  |  | 42 µM (inactive) | 90.4 µM (inactive) | 95.7 µM (inactive) | 26.7 µM (inactive) | 22.5 µM (inactive) | > 100 µM (inactive) | 41.4 µM (inactive) | 24.5 µM (inactive)
6 | CC(=O)OCC1OC(n2c3c(cc(C#N)c2=S)CCCCC3)C(OC(C)=O)C(OC(C)=O)C1OC(C)=O (configuration not stated) | > 100 µM (inactive) | > 100 µM (inactive) | 93.8 µM (inactive) | > 100 µM (inactive) | > 100 µM (inactive) | > 100 µM (inactive) | > 100 µM (inactive) | > 100 µM (inactive) | > 100 µM (inactive) | > 100 µM (inactive) | > 100 µM (inactive) | > 100 µM (inactive) | > 100 µM (inactive) | > 100 µM (inactive) | > 100 µM (inactive) | > 100 µM (inactive) | > 100 µM (inactive) | 99.1 µM (inactive) | > 100 µM (inactive) | > 100 µM (inactive)
7 | COc1cc(Oc2nc3ccc(C(F)(F)F)cc3nc2-c2ccccc2)cc(OC)c1OC | > 100 µM (inactive) | 40.5 µM (inactive) | 11 µM (inactive) | 48.8 µM (inactive) | 30.4 µM (inactive) | 11 µM (inactive) | 27.5 µM (inactive) | 36.8 µM (inactive) | 11 µM (inactive) | 17.1 µM (inactive) |  | 58.2 µM (inactive) | 66.2 µM (inactive) | 3.21 µM (inactive) | > 10 µM (inactive) | 6.58 µM (inactive) | 15.2 µM (inactive) | 8.75 µM (inactive) | 21.2 µM (inactive) | 14.5 µM (inactive)
